This is an account of results in patent US20220235049A1, “SUBSTITUTED PYRROLO [2, 3-b] PYRIDINE AND PYRAZOLO [3,4-b] PYRIDINE DERIVATIVES AS PROTEIN KINASE INHIBITORS” (Fochon Pharmaceuticals, Ltd., priority 2019, published 2022).

Like-named read-outs stand apart in the source and are kept apart here.

In series [1] the target is T1, BTK (C481S) (Homo sapiens, UniProt Q06187, C481S).
T1 construct: purchased SignalChem B10-12CH
Nature of the series: Kinase assay of BTK (C481S), [33P]-ATP filter-binding, at Reaction Biology Corporation. The format is biochemical. The conditions noted are these: 10 μM ATP, 20 min preincubation, 120 min reaction. The method, then: The kinase activity of BTK (C481S) was assayed at Reaction Biology Corporation. The substrate in the BTK (C481S) reaction, pEY (poly[Glu:Tyr] (4:1)) (Sigma, Cat. #P7244-250MG), was prepared in fresh reaction buffer (20 mM Hepes (pH 7.5), 10 mM MgCl2, 1 mM EGTA, 0.02% Brij35, 0.02 mg/ml BSA, 0.1 mM Na3VO4, 2 mM DTT, 1% DMSO). BTK(C481S) (SignalChem, Cat. #B10-12CH) was delivered into the substrate solution and mixed gently. The final concentrations of BTK (C481S) and the substrate in the reaction mixture were 6 nM and 0.2 mg/ml, respectively. Compounds were tested in 10-point concentration/response mode with 3-fold serial dilution steps starting at 1 μM.
Compounds in 100% DMSO were delivered into the kinase reaction mixture by acoustic liquid delivery technology (Echo550; nanoliter range) and incubated for 20 min at room temperature. 10 μM [^33P]-ATP (ATP: Sigma, Cat #: A7699; [^33P]-ATP: Hartmann Analytic, Cat #: SCF-301-12) was delivered into the reaction mixture to initiate the reaction. The mixture was incubated for 120 min at room temperature. Radioactivity was detected utilizing a proprietary filter-binding method. Kinase activity data were expressed as the percent remaining kinase activity in test samples compared to vehicle (DMSO) reactions. IC50 values were obtained using GraphPad Prism software.
Select compounds prepared as described above were assayed according to the biological procedures described herein.

Series [2] has as its system DOHH2 cells. Nature of the series: Cell proliferation assay in DOHH2 cells (MTS). The format is cell-based. The conditions noted are these: Homo sapiens, DOHH-2, 120 h. The method in brief: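 DOHH2 cells at 5000/well were treated with compound at 1.5–10000 nM for 120 h at 37 °C, as a proxy for BTK inhibition. Proliferation was read by MTS for 2 h, stopped with SDS, and absorbance measured at 490 nm with 650 nm reference; IC50 was fitted from the curve.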

Series [3] is described as follows: Pharmacokinetics in male Sprague-Dawley rats. The format is in vivo. The settings on record: rat; for Cmax: read-out: Cmax/C0; for MRT last: read-out: MRT0-t. The method, then: The purpose of this study was to determine the pharmacokinetics of Example 71 and Example 75 in male Sprague-Dawley rats (Supplied by Beijing Vital River Laboratory Animal Technology Co., Ltd.).
Animals in Group 1 were administered with Example 71 by single intravenous bolus injection at 1 mg/kg, which was formulated in 60% Phosal 50 PG (Lipoid, Batch #368315-3180028/009): 30% PEG400 (Sigma, Batch #MKCH6281): 10% Ethanol (Merck, Batch #K48244883634) at 1 mg/mL as a solution. Animals in Group 2 were administered with Example 71 by single oral gavage (PO) administration at 5 mg/kg, which was formulated in 60% Phosal 50 PG (Lipoid, Batch #368315-3180028/009): 30% PEG400 (Sigma, Batch #MKCH6281): 10% Ethanol (Merck, Batch #K48244883634) at 1 mg/mL as a solution. Blood samples were collected at 0.083, 0.25, 0.5, 1, 2, 4, 8, 12 and 24 hours post-dose. Concentrations of Example 71 in plasma were determined by LC/MS/MS (LC: Waters UPLC; MS: API4000).
Animals in Group 3 were administered with Example 75 by single intravenous bolus injection at 2 mg/kg, which was formulated in 10% DMSO (Sigma, Batch #LPC0S181): 60% PEG400 (Sigma, Batch #MKCH6281): 30% water at 2 mg/mL as a solution. Animals in Group 4 were administered with Example 75 by single oral gavage (PO) administration at 10 mg/kg, which was formulated in 10% DMSO (Sigma, Batch #LPC0S181): 60% PEG400 (Sigma, Batch #MKCH6281): 30% water at 2 mg/mL as a solution. Blood samples were collected at 0.083, 0.25, 0.5, 1, 2, 4, 8, 12 and 24 hours post-dose. Concentrations of Example 75 in plasma were determined by LC/MS/MS (LC: Waters UPLC; MS: Triple Quad 6500 plus).

Setting [4] is: male, Sprague-Dawley, plasma, iv, 1 mg/kg.
Setting [5] is: male, Sprague-Dawley, plasma, po, 5 mg/kg.

In general, IC50 refers to the concentration needed to halve the response being measured. A lower IC50 goes with higher potency. The term AUC(0-inf) denotes total exposure, with the tail of the curve extrapolated. Lower therefore signals less exposure. A word on the AUC(0-t): it is exposure summed from dosing to a finite time, without extrapolation to infinity. Lower therefore signals low exposure. What is called clearance is the volume of plasma or blood freed of the substance per unit of time. Low readings indicate a low capacity for elimination, high ones a high capacity for elimination. A word on the half-life: it is how long it takes for the measured level to halve. By Tmax is commonly meant the time at which the peak concentration occurs.

T1 sequence (Q06187 whole entry C481S): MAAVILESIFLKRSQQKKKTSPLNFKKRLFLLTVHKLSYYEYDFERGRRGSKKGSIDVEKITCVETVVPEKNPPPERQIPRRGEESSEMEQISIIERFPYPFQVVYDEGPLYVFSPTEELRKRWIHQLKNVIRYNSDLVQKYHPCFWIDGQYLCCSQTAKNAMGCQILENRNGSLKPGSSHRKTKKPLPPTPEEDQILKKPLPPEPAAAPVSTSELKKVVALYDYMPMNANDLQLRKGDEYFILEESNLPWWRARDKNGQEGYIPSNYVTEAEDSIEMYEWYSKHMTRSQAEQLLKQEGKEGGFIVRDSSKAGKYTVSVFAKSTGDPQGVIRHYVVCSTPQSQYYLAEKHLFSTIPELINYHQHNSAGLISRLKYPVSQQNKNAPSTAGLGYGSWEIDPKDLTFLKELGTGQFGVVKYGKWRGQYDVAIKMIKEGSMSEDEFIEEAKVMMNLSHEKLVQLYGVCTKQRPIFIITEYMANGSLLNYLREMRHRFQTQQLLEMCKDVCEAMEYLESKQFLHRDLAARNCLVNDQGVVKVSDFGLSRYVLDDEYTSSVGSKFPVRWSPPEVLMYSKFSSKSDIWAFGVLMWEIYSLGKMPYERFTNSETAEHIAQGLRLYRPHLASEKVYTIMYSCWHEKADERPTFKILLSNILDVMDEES

`CCOc1cnc2[nH]cc(C(=O)c3ccc(Oc4ccccc4F)cc3F)c2c1N[C@@H]1CC[C@@H](CO)OC1` [Example 71, (5-ethoxy-4-(((3R,6S)-6-(hydroxymethyl)tetrahydro-2H-pyran-3-yl)amino)-1H-pyrrolo[2,3-b]pyridin-3-yl)(2-fluoro-4-(2-fluorophenoxy)phenyl)methanone] had a half-inhibitory concentration (IC50) in series [1] of 0.77 nM. The compound also yielded a concentration for half-maximal inhibition (IC50) in series [2] of 1 nM. In series [3] (setting [4]), the AUC(0-inf) came out at 3770 ng·h/mL, the AUC(0-t) came to 3760 ng·h/mL, the clearance came to 4.7 mL/min/kg and the half-life was 3.07 h. In addition, in series [3] (setting [4]), the Cmax was found to be 4360 ng/mL and the MRT last worked out at 1.93 h. In series [3] (male, Sprague-Dawley, plasma, iv, 1 mg/kg, read-out: Vdss), the Vd came to 0.541 L/kg. In addition, in series [3] (setting [5]), the AUC(0-inf) stood at 10100 ng·h/mL, the AUC(0-t) is 10100 ng·h/mL, the Tmax was found to be 4 h and the half-life was 2.74 h. Moreover, in series [3] (setting [5]), the Cmax was 1680 ng/mL and the MRT last came to 5.26 h. Further, the F in series [3] (po 5 mg/kg vs iv 1 mg/kg) is listed as 53.7%.
